Experimental data taken from PubChem BioAssay AID602238 (National Center for Advancing Translational Sciences (NCATS), 2012).

System: mouse liver microsomes, percent remaining, LC-MS/MS
Assay: qHTS for Activators of Human alpha-Glucosidase as a Potential Chaperone Treatment of Pompe Disease: Metabolic Stability
Settings: at 5 µM; stronger effect = higher value
Text: Alpha-glucosidase is responsible for hydrolysis of terminal, non-reducing 1,4-linked alpha-D-glucose residues with release of alpha-D-glucose. It is a lysosomal hydrolase that is required for the degradation of a small percentage (1-3%) of cellular glycogen in human. Deficiency of this enzyme results in glycogen-storage disease type II (GSDII), also referred to as Pompe disease, an autosomal recessive disorder. Structurally normal glycogen is accumulated in lysosomes and cytoplasm in affected patients, primarily in muscle tissues. Excessive glycogen storage within lysosomes may interrupt normal functioning of other organelles and leads to cellular injury. In turn, this leads to enlargement and dysfunction of the entire organ involved (eg, cardiomyopathy and muscle weakness). It has reported that the improper folding and trafficking of alpha-glucosidase resulting from the genetic mutations may account for a significant number of Pompe patients. […] We optimized this alpha-glucosidase assay in 1536-well plate format for identifying the novel small molecule inhibitors with the structures other than the sugar analogs in order to develop the new pharmacological chaperones. The probe and other compounds were characterized in this metabolic stability assay to asses their properties. NIH Chemical Genomics Center [NCGC] NIH Molecular Libraries Probe Production Centers Network [MLPCN] MLPCN Grant: MH084841 Assay Submitter (PI): Wei Zheng
5uM of compound is incubated with mouse liver microsome; the reference compounds are verapamil and warfarin. Compounds are incubated and samples are analyzed with LC-MS/MS.

percent remaining	Compound
101%	CCCN1CNc2c(c(=O)[nH]c(=S)n2Cc2ccc(OC)c(OC)c2)C1
105%	CCCN1CNc2c(c(=O)[nH]c(=S)n2CCc2cccc(Cl)c2Cl)C1
4%	CCCN1CNc2c(c(=O)[nH]c(=S)n2CCc2ccc(OC)c(OC)c2)C1
